Assay results reported in publication PMC7251097, “Aspartate/asparagine-β-hydroxylase: a high-throughput mass spectrometric assay for discovery of small molecule inhibitors” (Scientific Reports, 2020).
Structures can show the parent of a compound that is named as a salt. Where two headings read alike, the source gives them in different places.

Molecular target: T1, His6-AspH315–758 (human aspartate/asparagine-β-hydroxylase, AspH) (Homo sapiens, UniProt Q12797)
T1 construct: N-Terminally His6-tagged human AspH315–758 (His6-AspH315–758) was produced in E. coli BL21 (DE3) cells; made in house; host or cells: E. coli BL21 (DE3), pET-28a(+) vector
T1 sequence (Q12797 315-758): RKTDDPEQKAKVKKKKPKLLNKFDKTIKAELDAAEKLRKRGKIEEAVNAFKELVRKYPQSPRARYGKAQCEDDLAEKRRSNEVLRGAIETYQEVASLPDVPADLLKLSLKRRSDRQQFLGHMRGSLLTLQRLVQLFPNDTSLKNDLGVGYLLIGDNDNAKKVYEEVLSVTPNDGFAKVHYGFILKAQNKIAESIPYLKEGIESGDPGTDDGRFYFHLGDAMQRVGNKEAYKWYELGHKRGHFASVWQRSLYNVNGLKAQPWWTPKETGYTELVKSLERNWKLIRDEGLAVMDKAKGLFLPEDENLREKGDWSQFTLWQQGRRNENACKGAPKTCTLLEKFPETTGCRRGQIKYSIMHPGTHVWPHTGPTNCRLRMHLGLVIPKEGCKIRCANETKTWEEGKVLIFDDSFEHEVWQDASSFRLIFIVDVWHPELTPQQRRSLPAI
Experiment: SPE-MS AspH inhibition assay (LOPAC screen at fixed 20 μM and IC50 dose-response), hydroxylation of cyclic peptide hFX-CP101–119
Format: biochemical
Conditions: for Plate 3 (% conversion) / Plate 2 (% conversion): conversion of substrate peptide; for Plate 5 (% inhibition) / Plate 5 (% conversion): plate 5 (Pfitzer), test compounds at fixed 20 μM; for Plate 5 (% conversion): mean conversion DMSO 32.88

[1] = LOPAC Plate 4, compound at 20 uM, substrate conversion
[2] = LOPAC Plate 4, compound at 20 uM, read-out: % inhibition
[3] = LOPAC compound at 20uM, plate 2
[4] = LOPAC compound at 20uM, plate 2, normalised to DMSO and 2,4-PDCA controls
[5] = LOPAC compound at fixed 20 uM, plate 1, normalised to DMSO and 2,4-PDCA controls
[6] = LOPAC Plate 4, compound at 20 uM
[7] = LOPAC compound at fixed 20 uM, substrate conversion, plate 1

Cc1ccc(N(CC2=NCCN2)c2cccc(O)c2)cc1 [Phentolamine mesylate]
% conversion [1]: 38.87% | inhibition at 20 µM [2]: -7.04%

Fc1cccc(/C=N/N=C/c2cccc(F)c2)c1 [DFB]
Plate 3 (% conversion) (LOPAC compound at 20uM): 35.73%

N[C@@H](Cc1c[nH]c2ccccc12)C(=O)O [L-Tryptophan]
% conversion [1]: 29.06%

COC(=O)c1c(C)[nH]c(C)c1C(=O)c1ccccc1Cc1ccccc1 [FPL 64176]
Plate 2 (% conversion) [3]: 38.85% | Plate 2 (% inhibition) [4]: -8.64%

NC(=Nc1ccccc1)NC(=O)c1nc(Cl)c(N)nc1N [Phenamil methanesulfonate]
% conversion [1]: 39.99% | inhibition at 20 µM [2]: -10.3%

CC(C)c1cc(C(C)C)c(CC(=O)NS(=O)(=O)Oc2c(C(C)C)cccc2C(C)C)c(C(C)C)c1 [Avasimibe]
Plate 5 (% inhibition): 73.14% | Plate 5 (% conversion): 11.42%

O=NN(CCCl)C(=O)NCCCl [Carmustine]
Plate 1 (% conversion): 39.33% | Plate 1 (% inhibition) [5]: -10.30%

CC(=O)O[C@H]1C[C@@]2(C)[C@@H](C[C@@H](O)[C@H]3[C@@]4(C)CC[C@@H](O)[C@@H](C)[C@@H]4CC[C@@]32C)/C1=C(\CCC=C(C)C)C(=O)[O-].[Na+] [Fusidic acid sodium]
Plate 2 (% conversion) [3]: 40.54% | Plate 2 (% inhibition) [4]: -13.68%

NC(=O)c1ncn([C@@H]2O[C@H](CO)[C@@H](O)[C@H]2O)n1 [Ribavirin]
% conversion [1]: 38.92% | inhibition at 20 µM [2]: -7.18%

CN(CC[C@@H](Oc1ccc(C(F)(F)F)cc1)c1ccccc1)CC(=O)[O-].[Li+] [Org 24598 lithium salt]
Plate 1 (% conversion): 40.79% | Plate 1 (% inhibition): -14.64%

CN(c1ccccc1CNc1nc(Nc2ccc3c(c2)CC(=O)N3)ncc1C(F)(F)F)S(C)(=O)=O [PF-431396]
Plate 5 (% inhibition): 35.16% | Plate 5 (% conversion): 24.35%

N.S=C(S)N1CCCC1 [Ammonium pyrrolidinedithiocarbamate]
% conversion [1]: 37.86%

N#CC(C#N)=C(N)/C(C#N)=C/c1ccc(O)cc1 [Tyrphostin AG 112]
% inhibition [6]: -1.91% | % conversion [1]: 37.12%

CC(C)[N+](C)(CCOC(=O)C1c2ccccc2Oc2ccccc21)C(C)C [Propantheline bromide]
% conversion [1]: 33.19%

CN(C)c1ccccc1CN1CCCN(Cc2ccccc2N(C)C)C1c1ccncc1 [GANT61]
% inhibition [6]: -13.34% | % conversion [1]: 41.02%

N[C@@H](CCC(=O)N[C@@H](CSN=O)C(=O)NCC(=O)O)C(=O)O [S-Nitrosoglutathione]
Plate 3 (% conversion) (LOPAC compound at 20uM): 32.88%

CC(=O)[C@H]1CC[C@H]2[C@@H]3CC=C4C[C@@H](OS(=O)(=O)[O-])CC[C@]4(C)[C@H]3CC[C@]12C.[Na+] [Pregnenolone sulfate sodium]
% conversion: 34.01% | % inhibition (20 µM): 7.19%

CC(=O)NC[C@H]1CN(c2ccc(N3CCOCC3)c(F)c2)C(=O)O1 [Linezolid]
Plate 1 (% inhibition) [5]: -10.54% | Plate 1 (% conversion) [7]: 39.41% | Plate 5 (% inhibition): 44.21% | Plate 5 (% conversion): 21.27%

CCCCN(CC)c1nc(C)nc2c1c(C)cn2-c1c(C)cc(C)cc1C [CP-154526]
Plate 5 (% inhibition): -9.05% | Plate 5 (% conversion): 39.39%

Cn1c(=O)c2c(ncn2C)n(C)c1=O [Caffeine]
Plate 1 (% inhibition) [5]: -5.72% | Plate 1 (% conversion) [7]: 37.79%

Cc1onc(-c2ccccc2)c1-c1ccc(S(N)(=O)=O)cc1 [Valdecoxib]
Plate 5 (% inhibition): 27.98% | Plate 5 (% conversion): 26.79%

CC(CCc1ccc(O)cc1)NCCc1ccc(O)c(O)c1 (centres unmarked) [Dobutamine hydrochloride]
Plate 2 (% conversion) [3]: 8.47% | inhibition at 20 µM (LOPAC compound at 20uM, plate 2, normalised to DMSO and 2,4-PDCA controls, read-out: Plate 2 (% inhibition)): 82.1%

CCOc1nc2cccc(C(=O)O)c2n1Cc1ccc(-c2ccccc2-c2nnn[nH]2)cc1 [candesartan, reference compound]
IC50 [μM] (50 nM His6-AspH315–758, 1.0 μM hFX-CP101–119, 3 μM 2OG, 2 μM Fe(II), 50 mM HEPES pH 7.5, 20 °C, mean ± SD, n = 2 (2,4-PDCA n = 10)): no inhibition

N#C/C(=C\c1ccc(-c2cc(Cl)ccc2Cl)o1)C(=O)Nc1cccc2ncccc12 [AGK2]
% conversion [1]: 36.60%

O=C(Nc1cccc(C(=O)Nc2ccc(S(=O)(=O)O)c3cc(S(=O)(=O)O)cc(S(=O)(=O)O)c23)c1)Nc1cccc(C(=O)Nc2ccc(S(=O)(=O)O)c3cc(S(=O)(=O)O)cc(S(=O)(=O)O)c23)c1 [NF 023, reference compound]
Plate 3 (% conversion) (LOPAC compound at 20uM): 4.28%
